Laboratory results: patent publication US11098060B2, “Macrocycle containing aminopyrazole and pyrimidine and pharmaceutical composition and use thereof” (CHIA TAI TIANQING PHARMACEUTICAL GROUP CO., LTD., priority 2017, dated 2021)

Assays:
[1] = Pharmacokinetic assay in rats, oral; assay type: in vivo; conditions: rat, male SD rats, 5 mg/kg single intragastric administration, plasma
Experimental: Male SD rats were available from Beijing Vital River Laboratory Animal Technology Co., Ltd. The rats were allocated with three rats per group, and orally administered the suspension of a sample to be tested (5 mg/kg, the suspension is a mixed solution of 10% EtOH, 40% PEG 400 and 50% H2O) by single intragastric administration, respectively. Before the experiment, the animals were fasted overnight, and the fasting time was from 10 hrs before administration to 4 hrs after administration. After administration, a blood sample was taken at 0.25 hr, 0.5 hr, 1 hr, 2 hrs, 4 hrs, 6 hrs, 8 hrs and 24 hrs, respectively. After the animals were narcotized with isoflurane using an anaesthesia machine for small animals, 0.3 mL of whole blood was taken from fundus venous plexus, and placed in a heparin anticoagulant tube. At 4° C., the sample was centrifuged at 4000 rpm for 5 min, and plasma was transferred to a centrifuge tube and preserved at −80° C. until the analysis was started. The sample in plasma was extracted by the protein precipitation method, and the extracted liquid was analyzed by LC/MS/MS.

TrkA^WT kinase = TrkA^WT kinase (Homo sapiens (Human), UniProt P04629); assay: Assay for inhibitory activity (IC50) against TrkA^WT (HTRF); assay type: biochemical; conditions: TrkA 1 nM, ATP 40 μM, TK peptide 1 μM, 60 min at 23° C.
Sequence of TrkA^WT kinase (P04629 33-796): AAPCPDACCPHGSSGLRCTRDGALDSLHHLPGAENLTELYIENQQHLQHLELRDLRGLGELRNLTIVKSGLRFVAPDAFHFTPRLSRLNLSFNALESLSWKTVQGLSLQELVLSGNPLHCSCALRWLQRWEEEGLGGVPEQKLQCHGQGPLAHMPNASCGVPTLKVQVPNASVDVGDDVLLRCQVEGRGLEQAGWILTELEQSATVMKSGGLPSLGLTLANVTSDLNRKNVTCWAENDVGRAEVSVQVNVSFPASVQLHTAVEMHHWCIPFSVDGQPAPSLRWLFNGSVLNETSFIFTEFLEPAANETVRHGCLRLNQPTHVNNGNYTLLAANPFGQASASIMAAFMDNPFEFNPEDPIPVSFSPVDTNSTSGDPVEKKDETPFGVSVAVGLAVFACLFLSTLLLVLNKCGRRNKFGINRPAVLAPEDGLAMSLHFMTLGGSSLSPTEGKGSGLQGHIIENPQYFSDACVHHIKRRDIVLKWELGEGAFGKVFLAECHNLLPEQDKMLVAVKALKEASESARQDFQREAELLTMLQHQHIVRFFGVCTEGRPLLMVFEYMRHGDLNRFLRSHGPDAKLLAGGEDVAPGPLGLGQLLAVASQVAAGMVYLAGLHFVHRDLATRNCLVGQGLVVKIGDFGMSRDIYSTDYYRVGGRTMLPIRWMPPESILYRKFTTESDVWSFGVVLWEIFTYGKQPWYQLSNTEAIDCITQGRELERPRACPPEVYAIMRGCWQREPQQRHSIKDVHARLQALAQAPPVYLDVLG

[2] = target: TrkA^G595R (Kinase domain) kinase (Homo sapiens (Human), UniProt P04629, G595R); assay: Assay for inhibitory activity (IC50) against TrkA^G595R kinase (HTRF); assay type: biochemical; conditions: kinase 0.2 nM, TK peptide 1 μM, 120 min at 23° C.
Sequence of TrkA^G595R (Kinase domain) kinase (P04629 510-781 G595R): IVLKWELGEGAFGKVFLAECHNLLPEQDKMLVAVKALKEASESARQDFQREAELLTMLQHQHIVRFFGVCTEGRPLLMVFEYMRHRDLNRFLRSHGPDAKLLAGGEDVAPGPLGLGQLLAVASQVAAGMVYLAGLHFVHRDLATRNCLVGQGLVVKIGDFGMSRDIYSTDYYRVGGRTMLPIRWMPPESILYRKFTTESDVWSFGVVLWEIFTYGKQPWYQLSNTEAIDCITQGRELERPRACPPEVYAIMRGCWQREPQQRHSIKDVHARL

Compound	AUC(0-inf) [1] [ng·h/mL]	Cmax [1] [ng/mL]	Tmax [1] [h]	half-life [1] [h]	IC50 (TrkA^WT kinase) [nM]	IC50 [2] [nM]
Nc1nn2ccc3nc2c1C(=O)NCCOc1ncc(F)cc1[C@H]1CCCN31 [Example 33, (R,1^3E,1^4E)-1^2-amino-3^5-fluoro-4-oxa-7-aza-1(5,3)-pyrazo[1,5-a]pyrimidine-3(3,2)-pyridine-2(1,2)-pyrrolidylcyclooctanephane-8-one]	513	142	0.5	4.22		
C[C@H]1CCc2ncc(F)cc2[C@H]2C[C@H](F)CN2c2ccn3nc(N)c(c3n2)C(=O)N1 [Example 29, (1^3E,1^4E,2^2R,24S,6S)-1^2-amino-2^4,3^5-difluoro-6-methyl-7-aza-1(5,3)-pyrazolo[1,5-a]pyrimidine-3(3,2)-pyridine-2(1,2) pyrrolidylcyclooctanephane-8-one]					0.25 ± 0.02	1.08 ± 0.24
Nc1nn2ccc3nc2c1C(=O)NCCCc1ncc(F)cc1[C@H]1C[C@H](F)CN31 [Example 27, (1^3E,1^4E,2^2R,2^4S)-1^2-amino-2^4,3^5-difluoro-7-aza-1(5,3)-pyrazolo[1,5-a]pyrimidine-3(3,2)-pyridine-2(1,2)-pyrrolidylcyclooctanephane-8-one]					0.21 ± 0.03	0.68 ± 0.26
Nc1nn2ccc3nc2c1C(=O)NCCCCOc1ncc(F)cc1[C@H]1C[C@H](F)CN31 [Example 16, (1^3E,1^4E,2^2R,2^4S)-1^2-amino-2^4,3^5-difluoro-4-oxa-9-aza-1(5,3)-pyrazolo[1,5-a] pyrimidine-3(3,2)-pyridine-2(1,2)-pyrrolidylcyclodecanephane-10-one]					0.51 ± 0.05	0.76 ± 0.14
Nc1nn2ccc3nc2c1C(=O)NCCOc1ccc(F)cc1[C@H]1CCCN31 [Example 8, (R,1^3E,1^4E)-1^2-amino-3^5-fluro-4-oxa-7-aza-1(5,3)-pyrazolo[1,5-a]pyrimidine-2(1,2)-pyrrolidine-3(1,2)-benzocyclooctanephane-8-one]					0.41 ± 0.04	2.08 ± 0.45
C[C@H]1CNC(=O)c2c(N)nn3ccc(nc23)N2C[C@@H](F)C[C@@H]2c2cc(F)cnc2O1 [Example 15, (1^3E,1^4E,2^2R,2^4S,5S)-1^2-amino-2^4,3^5-difluoro-5-methyl-4-oxa-7-aza-1(5,3)-pyrazolo[1,5-a] pyrimidine--3(3,2)-pyridine-2(1,2)-pyrrolidylcyclooctanephane-8-one]	494	285	0.58	1.53	0.45 ± 0.18	0.53 ± 0.08
(1^3E,1^4E,2^2R,2^4S)-1^2-Amino-2^4,3^5-difluoro-4-oxa-8-aza-1(5,3)-pyrazolo[1,5-a]pyrimidin-3(3,2)-pyridine-2(1,2)-pyrrolidylcyclononanephane-9-one [Example 12]					0.72 ± 0.04	0.34 ± 0.04
Nc1nn2ccc3nc2c1C(=O)NCCOc1ncc(F)cc1[C@H]1C[C@@H](O)CN31 [Example 9, (1^3E,1^4E,2^2R,2^4R)-1^2-amino-3^5fluoro-2^4-hydroxy-4-oxa-7-aza-1(5,3)-pyrazolo[1,5-a] pyrimidine-3(3,2)-pyridine-2(1,2)-pyrrolidylcyclooctanephane-8-one]					0.44 ± 0.12	0.84 ± 0.14
Nc1nn2ccc3nc2c1C(=O)NCCCOc1ncc(F)cc1[C@H]1CCCN31 [Example 21, (R,1^3E,1^4E)-1^2-Amino-3^5-fluoro-4-oxa-8-aza-1(5,3)-pyrazol[1,5-a]pyrimidine-3(3,2)-pyridine-2(1,2)-pyrrolidylcyclononanephane-9-one]					0.4 ± 0.04	0.85 ± 0.04
CN1CCCOc2ncc(F)cc2[C@H]2C[C@H](F)CN2c2ccn3nc(N)c(c3n2)C1=O [Example 17, (1^3E,1^4E,2^2R,2^4S)-1^2-amino-2^4,3^5-difluoro-8-methyl-4-oxa-8-aza-1(5,3) -pyrazolo[1,5-a] pyrimidine-3(3,2)-pyridine-2(1,2)-pyrrolidylcyclononanephane-9-one]					0.61 ± 0.06	1.05 ± 0.16
C[C@@H]1CCc2ncc(F)cc2[C@H]2CCCN2c2ccn3nc(N)c(c3n2)C(=O)N1 [Example 28, (1^3E,1^4E,2^2R,6R)-1^2-amino-3^5-fluoro-6-methyl-7-aza-1(5,3)-pyrazolo[1,5-a]pyrimidine 3(3,2)-pyridine-2(1,2) pyrrolidylcyclooctanephane-8-one]					0.31 ± 0.03	1.01 ± 0.36
CC1(C)CNC(=O)c2c(N)nn3ccc(nc23)N2C[C@@H](F)CC2c2cc(F)cnc2OC1 (stereo partly shown) [Example 18, (1^3E,1^4E,2^2R,2^4S)-1^2-amino-2^4,3^5-difluoro-6,6-dimethyl-4-oxa-8-aza-1(5,3)-pyrazolo [1,5-a]pyrimidine-3(3,2)-pyridine-2(1,2)-pyrrolidylcyclononanephane-9-one]						1.24 ± 0.15
Nc1nn2ccc3nc2c1C(=O)NCCCOc1ccc(F)cc1[C@H]1CCCN31 [Example 10, (R,1^3E,1^4E)-1^2-amino-3^5-fluro-4-oxa-8-aza-1(5,3)-pyrazolo[1,5-a]pyrimidine-2(1,2)-pyrrolidine-3(1,2)-benzocyclononanephane-9-one]					0.8 ± 0.21	1.92 ± 0.1
Nc1nn2ccc3nc2c1C(=O)NCCOc1ncc(F)cc1[C@H]1C[C@H](F)CN31 [Example 14, (1^3E,1^4E,2^2R,2^4S)-1^2-amino-2^4,3^5-difluoro-4-oxa-7-aza-1(5,3)-pyrazolo[1,5-a]pyrimidine-3(3,2)-pyridine-2 (1,2)-pyrrolidylcyclooctanephane-8-one]	504	140	1	1.81	0.68 ± 0.03	0.4 ± 0.05
